From patent US8759331B2, “X-ray and gamma-photon activable organic compounds, their preparation and their uses” (Centre National de la Recherche Scientifique, priority 2010, dated 2014)
“Also recorded” adds a separate entry of the source.

Legend:
[1] = photolysis under one-photon (UV) irradiation at 366 nm, followed by HPLC/LC-MS; type: physicochemical; conditions: 366 nm UV irradiation, physiological conditions / aqueous buffer pH 7
Method: The photochemical efficiency of any chromophores is determined by the extinction coefficient (ε) and the quantum yield (Qu) that is characteristic of the observed photochemical event of the chromophore. The product of these quantities (εQu) characterizes the efficiency of the event such as fluorescence or chemical transformation, for example by the incident light.
The photolysis at 366 nm of compound 5 was monitored by the disappearance of the caged hydrocinnamate 5 and by the appearance of the compounds 6 and 7, by using liquid chromatography (LC) or liquid-chromatography-mass spectrometry (LC-MS) techniques. […] In contrast, compound 4 was inert under UV irradiation at 366 nm.
Samples were prepared in c=0.1 mM concentration in aqueous TRIS buffer (pH=7). An aliquot (1 mL) of this solution was irradiated at 366 nm (ε366=3000 M^−1·cm^−1) in a 1 mL quartz cuvette. The evolution of the photolysis was followed by HPLC using C-18 reverse phase chromatography (XTerra, eluents: methanol/HCO2H (0.1% aq), H2O/HCO2H (0.1% aq) detection at 260 and 320 nm).

[2] = radiolysis under X-ray irradiation (17.5 keV), followed by HPLC; type: physicochemical; conditions: soft X-ray irradiation 17.5 keV
Method: The radiolysis was followed either by the diminution of the caged compound 5, or by the increasing of the photo-products 6 and 7. […] The photo-fragmentation follows a first order kinetic with a time constant of 4.7×10^−3 min^−1.
The evolution of the radiolysis was followed by HPLC using C-18 reverse phase chromatography (XTerra, eluents: methanol/HCO2H (0.1% aq), H2O/HCO2H (0.1% aq) detection at 260 and 320 nm).

| photolysis under near UV irradiation (366 nm) [1] | Compound | photo-fragmentation under X-ray irradiation [2] |
| --- | --- | --- |
| inert | O=C(CCc1ccccc1)OCc1ccc2ccc(N3CCNCC3)cc2n1 [compound 4] | no detectable photo-fragmentation; also recorded: no traces of photo-fragmentation |
| prone to photolysis | CC(C)(C)OC(=O)N1CCN(c2ccc3ccc(COC(=O)CCc4ccccc4)nc3c2)CC1 [compound 3] | no detectable photo-fragmentation; also recorded: no traces of photo-fragmentation |
